The nature of data set [1]: In vitro plasma stability, rat plasma. Conditions: Rat PLM, 37° C. Further details: remaining at 2 h: dose or concentration left out as unconfirmed. The data set is classed as in vitro ADME.
Experimental: In vitro plasma metabolic stability was studied in male Sprague Dawley rats and human. Test compounds were incubated at 3 M for 2 hours at 37° C. At each time point (0, 0.25, 1 and 2 h), samples were prepared for analysis by means of a single step protein precipitation technique by adding 150 μL of ethanol, 0.1% formic acid to 50 μL aliquots of plasma. Samples were mixed by vortex for homogeneity and then subjected to centrifugation at 14000 rpm for 15 min. The supernatant (100 μL) was collected, diluted with 100 μL of water, 0.1% formic acid and analyzed by LC-HRMS (TripleTOF 6600+, AB Sciex). For each test compound, the area ratios at each time point were compared to the 0 h area ratio and converted to a percentage remaining.
A further data set has as its target T1, human CRF2a receptor (Homo sapiens, UniProt Q13324).
T1 construct: expressed in transfected cells; host or cells: TeloHEAC cells
T1 sequence (Q13324 1-411): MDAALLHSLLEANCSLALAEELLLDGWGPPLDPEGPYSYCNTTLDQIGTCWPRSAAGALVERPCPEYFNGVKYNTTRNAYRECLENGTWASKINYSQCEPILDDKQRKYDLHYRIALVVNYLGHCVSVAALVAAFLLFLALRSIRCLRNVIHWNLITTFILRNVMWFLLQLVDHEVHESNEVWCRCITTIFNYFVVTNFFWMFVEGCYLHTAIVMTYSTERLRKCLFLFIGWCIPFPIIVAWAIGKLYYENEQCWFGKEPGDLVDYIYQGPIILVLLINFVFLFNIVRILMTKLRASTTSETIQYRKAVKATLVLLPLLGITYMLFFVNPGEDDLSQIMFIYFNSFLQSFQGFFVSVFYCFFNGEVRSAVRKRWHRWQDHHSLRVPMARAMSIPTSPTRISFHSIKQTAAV
Briefly: Activity at human CRF2a receptor, cAMP functional assay in TeloHEAC cells. It is filed as cell-based. Particulars: TeloHEAC cells stably expressing human CRF2a receptor, relative to urocortin 2 (100 nM = 100%). The method in brief:
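TeloHEAC cells stably expressing human CRF2a (10000 cells/well, suspended in HBSS/20 mM HEPES with 2 mM IBMX) were exposed to compounds for 30 min at 37 °C. cAMP was read as the 665/620 nm fluorescence ratio after 1 h at room temperature. EC50 was derived relative to 100 nM urocortin 2, set as 100%.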

The nature of data set [2]: Chemical stability in buffer (pH 7.4 / pH 4.5), % purity loss. It is filed as physicochemical. Conditions: 40° C. vs 5° C., 14 or 28 days; for Buffer stability pH 7.4 % purity loss: 100 mM phosphate buffer pH 7.4. The method in brief: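 Compounds dissolved at 10 mg/mL target in 100 mM phosphate (pH 7.4) or 100 mM acetate (pH 4.5) buffer for 1 h at room temperature, then centrifuged. Diluted supernatant stored at 5 °C or 40 °C for 14 or 28 days; % purity loss by LC-UV.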

Data set [3] in a line: Pharmacokinetics in male Sprague Dawley rats after subcutaneous administration. The data set is classed as in vivo. Particulars: plasma, rat, SC, 0.1 mg/kg.
In another data set the test system is Sprague Dawley rats. Briefly: Effect on systolic blood pressure, telemetry in Sprague Dawley rats. It is filed as in vivo, rat. Particulars: 0.1 mg/kg SC; for Systolic blood pressure (Mean) % change from baseline, 8 h / Systolic blood pressure (Mean) % change from baseline, 12 h / Systolic blood pressure (Mean) % change from baseline, 24 h: n=2; for Duration of action: last time point with an effect on BP still observed. The method in brief: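 Sprague Dawley rats with abdominal-aorta telemetry catheters, recovered ≥10 days, received 0.1 mg/kg SC of compound or vehicle. Systolic pressure recorded 1 h pre-dose as baseline, then continuously up to 48 hours, expressed as % change from baseline; duration of action is last time point with a BP effect (n=2).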

The nature of data set [4]: In vitro plasma stability, human plasma. Particulars: Human PLM, 37° C. It is filed as in vitro ADME. Further details: dose or concentration left out as unconfirmed.
Data set [5] in a line: Pharmacokinetics in male Sprague Dawley rats after subcutaneous administration. It is filed as in vivo. Particulars: plasma, rat.

What is called EC50 is the concentration needed to bring the measured effect to its halfway point. Broadly, the AUC(0-t) is the area under the concentration-time curve up to a stated or last time point. As usually defined, the Cmax is the peak of the concentration-time curve. The term half-life denotes the time needed for the level to fall by half in the phase considered. The term Tmax denotes the time from dosing to the highest level.

*1 amine or outer side, *2 acyl side, *3 side chain or, on linkers, in order; H or OH if unused. Where a SMILES comes first, the peptide text is derived from it. Side-chain parts run from the residue outwards. [ ]: non-standard residue; d: D form. The star is where a group is joined. C20 diacid = O=C(O)CCCCCCCCCCCCCCCCCCC(=O)*; C18 diacid = O=C(O)CCCCCCCCCCCCCCCCC(=O)*; γGlu = O=C(O)[C@H](CCC(=O)[*:2])N[*:1]; NMeI = CC[C@H](C)[C@H](NC)C(=O)O; AEEA = NCCOCCOCC(=O)O; Aib = CC(C)(N)C(=O)O A value given as a limit tells only on which side of the number the result lay.

For the compound `CC[C@H](C)[C@H](NC)C(=O)N[C@H](C(=O)N[C@@H](CC(C)C)C(=O)N[C@@H](CO)C(=O)N[C@@H](CC(C)C)C(=O)N[C@@H](CC(=O)O)C(=O)N[C@@H](C(=O)N1CCC[C@H]1C(=O)N[C@H](C(=O)N[C@@H](CCCCN)C(=O)N[C@@H](CC(C)C)C(=O)N[C@@H](CCCCNC(=O)COCCOCCNC(=O)COCCOCCNC(=O)CC[C@H](NC(=O)CCCCCCCCCCCCCCCCC(=O)O)C(=O)O)C(=O)N[C@@H](CCCCN)C(=O)N[C@H](C(=O)N[C@@H](CC(C)C)C(=O)N[C@@H](CC(C)C)C(=O)N[C@@H](CCC(=O)O)C(=O)N[C@@H](CCC(N)=O)C(=O)N[C@@H](CCC(=O)O)C(=O)N[C@@H](CCCCN)C(=O)N[C@@H](CCC(N)=O)C(=O)N[C@@H](CCCCN)C(=O)N[C@@H](CCCCN)C(=O)N[C@@H](CCC(N)=O)C(=O)N[C@@H](CCCNC(=N)N)C(=O)N[C@@H](CCC(=O)O)C(=O)N[C@@H](CCC(N)=O)C(=O)N[C@@H](C)C(=O)N[C@@H](CCC(=O)O)C(=O)N[C@H](C(=O)N[C@@H](CC(N)=O)C(=O)NC(C)(C)C(=O)N[C@@H](CCC(N)=O)C(=O)N[C@H](C(=O)N[C@@H](CC(C)C)C(=O)N[C@@H](C)C(=O)N[C@@H](CCC(N)=O)C(=O)N[C@H](C(N)=O)C(C)C)[C@@H](C)CC)[C@@H](C)O)[C@@H](C)CC)[C@@H](C)CC)C(C)C)C(C)C` [compound 118] (H-[NMeI]VLSLD[dV]PIKLK([AEEA-AEEA-γGlu-C18 diacid])KILLEQEKQKKQREQAETN[Aib]QILAQV-NH2), in data set [1], the “% remaining at 2 hours” value came to 128%. This compound also registered a 50% effective concentration (EC50) at human CRF2a receptor of 0.6 nM. In data set [2] (100 mM acetate buffer pH 4.5), the “Buffer stability pH 4.5 % purity loss” value is listed as 0/0 ^ %. The “Buffer stability pH 7.4 % purity loss” value in data set [2] was 0/0 ^ %. In addition, in data set [3], the AUC(0-t) is 3540 ng·h/mL and the Cmax came out at 225 ng/mL. For the same compound, in the data set with Sprague Dawley rats, the “Systolic blood pressure (Mean) % change from baseline, 8 h” value is listed as −24%; the “Systolic blood pressure (Mean) % change from baseline, 12 h” value was −17%; the “Systolic blood pressure (Mean) % change from baseline, 24 h” value is given as −4%; the Duration of action is greater than 24 h. For the same compound, in data set [4], the share remaining at 2 h came to 91%. In data set [5] (IV, 0.05 mg/kg), this compound gave an AUC(0-t) of 3900 ng·h/mL and a half-life of 5.2 h. In addition, in data set [5] (SC, 0.1 mg/kg), the time of peak concentration (Tmax) was determined as 8 h and the half-life was 5.2 h.

As to `CC[C@H](C)[C@H](NC)C(=O)N[C@H](C(=O)N[C@@H](CC(C)C)C(=O)N[C@@H](CO)C(=O)N[C@@H](CC(C)C)C(=O)N[C@@H](CC(=O)O)C(=O)N[C@@H](C(=O)N1CCC[C@H]1C(=O)N[C@H](C(=O)N[C@@H](CCCCN)C(=O)N[C@@H](CC(C)C)C(=O)N[C@@H](CCCCNC(=O)CC[C@H](NC(=O)CCCCCCCCCCCCCCCCCCC(=O)O)C(=O)O)C(=O)N[C@@H](CCCCN)C(=O)N[C@H](C(=O)N[C@@H](CC(C)C)C(=O)N[C@@H](CC(C)C)C(=O)N[C@@H](CCC(=O)O)C(=O)N[C@@H](CCC(N)=O)C(=O)N[C@@H](CCC(=O)O)C(=O)N[C@@H](CCCCN)C(=O)N[C@@H](CCC(N)=O)C(=O)N[C@@H](CCCCN)C(=O)N[C@@H](CCC(=O)O)C(=O)N[C@@H](CCC(N)=O)C(=O)N[C@@H](CCCNC(=N)N)C(=O)N[C@@H](CCC(=O)O)C(=O)N[C@@H](CCC(N)=O)C(=O)N[C@@H](C)C(=O)N[C@@H](CCC(=O)O)C(=O)N[C@H](C(=O)N[C@@H](CC(N)=O)C(=O)NC(C)(C)C(=O)N[C@@H](CCC(N)=O)C(=O)N[C@H](C(=O)N[C@@H](CC(C)C)C(=O)N[C@@H](C)C(=O)N[C@@H](CCC(N)=O)C(=O)N[C@H](C(N)=O)C(C)C)[C@@H](C)CC)[C@@H](C)O)[C@@H](C)CC)[C@@H](C)CC)C(C)C)C(C)C` [compound 218] (H-[NMeI]VLSLD[dV]PIKLK([γGlu-C20 diacid])KILLEQEKQKEQREQAETN[Aib]QILAQV-NH2), the share remaining at 2 h in data set [1] (male, Sprague Dawley, plasma) stood at 109%. For the same compound, the concentration giving a half-maximal response (EC50) on human CRF2a receptor is 0.11 nM. Further, the “Buffer stability pH 7.4 % purity loss” value in data set [2] is listed as 0.0/Not Tested %. In data set [3], this compound returned an AUC(0-t) of 4120 ng·h/mL and a Cmax of 115 ng/mL. Further, in the data set with Sprague Dawley rats, the “Systolic blood pressure (Mean) % change from baseline, 8 h” value is −13%; the “Systolic blood pressure (Mean) % change from baseline, 12 h” value is listed as −17%; the “Systolic blood pressure (Mean) % change from baseline, 24 h” value was −16%; the Duration of action is on record as greater than 24 h. The amount remaining at 2 h in data set [4] was 99%. In addition, in data set [5] (IV, 0.05 mg/kg), the AUC(0-t) came out at 6740 ng·h/mL and the half-life was 11 h. The time to peak (Tmax) in data set [5] (SC, 0.1 mg/kg) amounted to 24 h.

For the origin of these results see patent US20260001928A1 (CORTERIA PHARMACEUTICALS, priority 2022, published 2026).
